Experimental data: the CheMixHub viscosity set
± gives the uncertainty stated by the source.

Assay: xn = mol fraction of the nth substance listed

C[N+](C)(C)C[C@H](O)CC(=O)[O-] + O=C1O[C@H]([C@@H](O)CO)C(O)=C1O
Conditions	viscosity [mPa·s]
298.15 K, 101.33 kPa, x2 = 0.7	423.5

C[N+](C)(C)C[C@H](O)CC(=O)[O-] + O=C(O)CC(O)(CC(=O)O)C(=O)O
Conditions	viscosity [mPa·s]
298.15 K, 101.33 kPa, x2 = 0.4	896.5

CCCC(=O)O + O=[N+]([O-])c1ccccc1
viscosity [mPa·s], 101 kPa
Conditions	x2 = 0.1103	x2 = 0.2181	x2 = 0.3235	x2 = 0.4266	x2 = 0.5274	x2 = 0.6259	x2 = 0.7225	x2 = 0.8169	x2 = 0.9094
298.15 K	1.829 ± 0.014	1.83 ± 0.014	1.837 ± 0.014	1.841 ± 0.014	1.837 ± 0.014	1.82 ± 0.014	1.786 ± 0.014	1.732 ± 0.013	1.653 ± 0.013
308.15 K	1.531 ± 0.012	1.564 ± 0.012	1.59 ± 0.012	1.604 ± 0.012	1.603 ± 0.012	1.582 ± 0.012	1.539 ± 0.012	1.473 ± 0.011	1.381 ± 0.011
318.15 K	1.355 ± 0.01	1.458 ± 0.011	1.527 ± 0.012	1.56 ± 0.012	1.559 ± 0.012	1.523 ± 0.012	1.455 ± 0.011	1.354 ± 0.01	1.22 ± 0.0096

COCCO + OCCO
viscosity [mPa·s], 101 kPa
Conditions	x2 = 0.1359	x2 = 0.2614	x2 = 0.3776	x2 = 0.4859	x2 = 0.5861	x2 = 0.6799	x2 = 0.7676	x2 = 0.8499	x2 = 0.9272
293.15 K	2.281 ± 0.016	3.192 ± 0.022	3.871 ± 0.026	5.319 ± 0.036	6.607 ± 0.044	8.77 ± 0.057	10.8 ± 0.07	14 ± 0.09	17.35 ± 0.11
298.15 K	2.034 ± 0.014	2.799 ± 0.019	3.383 ± 0.023	4.577 ± 0.031	5.633 ± 0.038	7.281 ± 0.048	9.021 ± 0.059	11.5 ± 0.07	14.18 ± 0.09
303.15 K	1.826 ± 0.013	2.471 ± 0.017	2.981 ± 0.02	3.965 ± 0.027	4.84 ± 0.033	6.282 ± 0.042	7.583 ± 0.05	9.579 ± 0.062	11.66 ± 0.08
308.15 K	1.652 ± 0.011	2.2 ± 0.015	2.644 ± 0.018	3.468 ± 0.024	4.194 ± 0.029	5.372 ± 0.036	6.436 ± 0.043	8.035 ± 0.053	9.727 ± 0.063
313.15 K	1.494 ± 0.01	1.97 ± 0.014	2.364 ± 0.016	3.051 ± 0.021	3.663 ± 0.025	4.643 ± 0.032	5.522 ± 0.038	6.84 ± 0.046	8.193 ± 0.054
318.15 K	1.359 ± 0.01	1.775 ± 0.012	2.14 ± 0.015	2.718 ± 0.019	3.218 ± 0.022	4.04 ± 0.028	4.701 ± 0.032	5.855 ± 0.04	6.98 ± 0.047
323.15 K	1.241 ± 0.009	1.604 ± 0.011	1.938 ± 0.013	2.399 ± 0.017	2.851 ± 0.02	3.547 ± 0.024	4.102 ± 0.028	5.049 ± 0.035	5.979 ± 0.041

CCCC[N+](CCCC)(CCCC)Cc1ccccc1.[Cl-] + OCCOCCO
Conditions	viscosity [mPa·s]
293.15 K, 100 kPa, x1 = 0.25	433.5 ± 32

CC(O)=S + c1ccccc1
298.1 K, 101 kPa
Conditions	viscosity [mPa·s]
x1 = 0.2	0.584 ± 0.046
x1 = 0.4	0.584 ± 0.046
x1 = 0.5	0.589 ± 0.046
x1 = 0.6	0.599 ± 0.047
x1 = 0.8	0.631 ± 0.049

CCCC(=O)O + c1ccccc1
298.15 K, 101 kPa
Conditions	viscosity [mPa·s]
x1 = 0.04	0.612 ± 0.016
x1 = 0.09	0.624 ± 0.017
x1 = 0.14	0.639 ± 0.017
x1 = 0.18	0.656 ± 0.017
x1 = 0.37	0.747 ± 0.02
x1 = 0.47	0.808 ± 0.021
x1 = 0.57	0.903 ± 0.024
x1 = 0.78	1.1 ± 0.029

CCCCBr + c1ccccc1
101 kPa
Conditions	viscosity [mPa·s]
298.15 K, x1 = 0.066	0.588 ± 0.016
298.15 K, x1 = 0.1	0.583 ± 0.016
298.15 K, x1 = 0.134	0.574 ± 0.016
308.15 K, x1 = 0.066	0.518 ± 0.014
308.15 K, x1 = 0.1	0.515 ± 0.014
308.15 K, x1 = 0.134	0.51 ± 0.014
308.15 K, x2 = 0.094	0.5122 ± 0.0043
308.15 K, x2 = 0.2084	0.5022 ± 0.0041
308.15 K, x2 = 0.2997	0.4939 ± 0.0039
308.15 K, x2 = 0.395	0.4879 ± 0.0038
308.15 K, x2 = 0.5053	0.4828 ± 0.0037
308.15 K, x2 = 0.5954	0.4805 ± 0.0036
308.15 K, x2 = 0.6993	0.4823 ± 0.0035
308.15 K, x2 = 0.8012	0.4853 ± 0.0035
308.15 K, x2 = 0.9023	0.4943 ± 0.0035
318.15 K, x1 = 0.066	0.459 ± 0.012
318.15 K, x1 = 0.1	0.457 ± 0.012
318.15 K, x1 = 0.134	0.454 ± 0.012
323.15 K, x1 = 0.066	0.432 ± 0.012
323.15 K, x1 = 0.1	0.431 ± 0.012
323.15 K, x1 = 0.134	0.428 ± 0.012

COCCO + c1ccccc1
viscosity [mPa·s]
Conditions	298.15 K	303.15 K	308.15 K
101 kPa, x1 = 0.0543	0.624 ± 0.011	–	0.541 ± 0.01
101 kPa, x1 = 0.1499	0.669 ± 0.012	–	0.571 ± 0.011
101 kPa, x1 = 0.2235	0.708 ± 0.013	–	0.598 ± 0.011
101 kPa, x1 = 0.3508	0.788 ± 0.014	–	0.654 ± 0.012
101 kPa, x1 = 0.4496	0.862 ± 0.015	–	0.707 ± 0.013
101 kPa, x1 = 0.4961	0.902 ± 0.015	–	0.735 ± 0.013
101 kPa, x1 = 0.5462	0.947 ± 0.016	–	0.768 ± 0.013
101 kPa, x1 = 0.6455	1.049 ± 0.018	–	0.842 ± 0.015
101 kPa, x1 = 0.7524	1.18 ± 0.019	–	0.938 ± 0.016
101 kPa, x1 = 0.8509	1.323 ± 0.022	–	1.043 ± 0.018
101 kPa, x1 = 0.9558	1.505 ± 0.024	–	1.177 ± 0.02
101.33 kPa, x1 = 0.1174	–	0.599 ± 0.008	–
101.33 kPa, x1 = 0.1933	–	0.628 ± 0.009	–
101.33 kPa, x1 = 0.2642	–	0.659 ± 0.009	–
101.33 kPa, x1 = 0.3837	–	0.728 ± 0.01	–
101.33 kPa, x1 = 0.4988	–	0.807 ± 0.011	–
101.33 kPa, x1 = 0.654	–	0.945 ± 0.012	–
101.33 kPa, x1 = 0.7474	–	1.049 ± 0.013	–
101.33 kPa, x1 = 0.843	–	1.188 ± 0.015	–
101.33 kPa, x1 = 0.8998	–	1.246 ± 0.016	–
